Results on 5 molecules are retold here after patent US5922582A, “Indole alkaloid type compound 0089-D” (HIGETA SHOYU Co., Ltd., priority 1998, dated 1999).

Series [1] deals with Nocardia brasiliensis IFM 0089. Kind of series: Susceptibility to antibiotics of the producing strain. Format: cell-based. As to the method: The present strain was cultured in a medium (brain heart infusion containing 2% glucose) at 250 rpm at 30° C. for 72 hours with shaking, and the cells grown in the medium was harvested by centrifugation (3000 rpm×10 minutes) and washed twice with distilled water. Further, the cells were washed with ethanol and then dried under vacuum to give the dried cells. The amino acid composition, sugar composition and lipid composition of the cell wall of this dried cells were examined on the basis of Bergey's Manual of Determinative Bacteriology, 9th ed., Williams, Baltimore, 1993. Meso-diaminopimelic acid was detected in the amino acid analysis, and arabinose and galactose were detected in the sugar analysis. The presence of mycolic acid was confirmed from the result of the lipid analysis, and its type was Nocardia type. Isoprenoid quinone, i.e., a cell lipid component was confirmed to contain MK-8 (H4) cycle as a major component. The present strain was identified as Nocardia brasiliensis, further from its ability to assimilate casein, hypoxanthine and tyrosine and from its production pattern of acid from sugar and its susceptibility pattern to antimicrobial agents as shown in Table 4 (Mikami & Yazawa, Susceptibility pattern of pathogenic Nocardia to some selected antimicrobial agents and their usefulness in the identification work in a clinical laboratory: Bull. JFCC "Bulltein of the Japan Federation for Culture Collections", 5: 89-95, 1989).

In another series the test system is Micrococcus luteus. In words: Paper disk method, growth inhibition of Micrococcus luteus. Format: cell-based. The note with it: nutrient agar, 30° C., 24 hours. As to the method:
The resulting culture, 150 L, was filtered through a filter cloth whereby the cells were recovered. The operation of extracting the cells was carried out by adding 20 L methanol. The thus-obtained extract was concentrated and evaporated into dryness in an evaporator. 1 L distilled water was added to 4 g of the dried matter to give a suspension, which was then partitioned and extracted 3 times with 1 L of n-hexane. The n-hexane fraction, 3 L, was concentrated and evaporated into dryness in an evaporator, dissolved in 8 ml of an n-hexane:ethyl acetate mixture (20:1) and subjected to silica gel chromatography (column 6 cm×20 cm). After impurities were eluted with 2 L of an n-hexane : ethyl acetate mixture (20 1), compound 0089-D was eluted with 2 L of an n-hexane:ethyl acetate mixture (10:1). Detection of compound 0089-D in the eluted fraction was carried out using growth inhibitory activity on a test microorganism Micrococcus luteus as the indicator by the following paper disk method.
The eluted fraction was adsorbed onto a paper disk and placed on a nutrient agar medium (Difco) on which M. luteus had been spread, and then incubated at 30° C. for 24 hours.

Another series in a line: Solubility. Format: physicochemical.
Series [2] has as its system cultured tumor cells (P388, P388/ADR, L1210 and KB). Kind of series: Cytotoxicity on the cultured tumor cells, overall (MTT). The format is cell-based. The following applies: in words. As to the method: (§1) Cytotoxicity of compound 0089-D on cultured tumor cell lines, P388, adriamycin resistant P388 (P388/ADR), L1210 and KB was examined in the following manner.
(§2) L1210 was suspended in RPMI1640 medium, P388 and P388/ADR in RPMI1640 medium containing 20 μM of 2-mercaptoethanol, and KB in Dulbecco's MEM medium (any medium contained 10% fetal bovine serum) respectively whereby cell suspension (5.6×10^4 cells/ml) were prepared. The test sample was dissolved in methanol and diluted serially with each medium to give solutions containing the test sample at various concentrations. […] 72 hours thereafter, cell growth was measured by the following calorimetric assay method using 3-(4,5-dimethyl-2-thiazolyl)-2,5-diphenyl-2H-tetrazolium bromide (MTT).
(§3) That is, 20 μl of 2 mg/ml MTT solution was added to each well and the cells were incubated for 4 hours at 37° C. Thereafter, 50 μl of 50% dimethylformamide solution containing 20% sodium dodecyl sulfate was added to each well to dissolve the formed violet formazan crystal, and its absorbance at 570 nm was measured in a microplate reader (immunoreader) and used as an indicator of the growth. […]
(§4) Degree of inhibition=[1--(absorbance in the presence of test sample)/(absorbance in the absence of test sample)]×100

Series [3] has as its system N. otitidiscaviarum IFM0239. Kind of series: Antimicrobial activity, MIC. The format is cell-based. The following applies: N. otitidiscaviarum IFM0239, Muller Hinton broth, 37° C., 24 hours. As to the method:
(§5) The antimicrobial activity of compound 0089-D on various microorganisms was confirmed by determining minimum inhibitory concentration (MIC) on growth.
(§6) The MIC of compound 0089-D for various microorganisms was determined in a Muller Hinton broth (BBL) containing 0.2% glucose according to the regulations of the Japan Chemotherapy Association (The Essentials of Antibiotics, 4th ed., Tokyo University Press, 1992).
(§7) Each test microorganism was prepared at density of 1×10^6 cfu/ml in the above medium to prepare a test microorganism liquid.
(§8) The test sample (compound 0089-D) was dissolved in methanol and diluted in the above Muller Hinton broth by subjecting it to serial 2-fold dilution starting at the concentration of 1 mg/ml. 180 μl of the test microorganism liquid and 20 μl of the test sample solution were put through a pipette to a 96-well micro-titer plate and incubated at 37° C. 24 hours thereafter, growth was examined by the eye to determine MIC.

In another series the test system is N. brasiliensis IFM0236. Kind of series: Antimicrobial activity, MIC. Format: cell-based. The following applies: N. brasiliensis IFM0236, Muller Hinton broth, 37° C., 24 hours. As for the experimental part: as §5, §6, §7, §8
The test system of a further series is N. asteroides IFM0319. Kind of series: Antimicrobial activity, MIC. The format is cell-based. The note with it: Nocardia asteroides; N. asteroides IFM0319, Muller Hinton broth, 37° C., 24 hours. As for the experimental part: as §5, §6, §7, §8
Another series concerns N. farcinica IFM0284. Kind of series: Antimicrobial activity, MIC. The note with it: Nocardia farcinica; N. farcinica IFM0284, Muller Hinton broth, 37° C., 24 hours. Format: cell-based. As to the method:
as §5, §6, §7, §8

For another series, the system named is M. phlei ATCC11758. In words: Antimicrobial activity, MIC. Format: cell-based. The following applies: Mycolicibacterium phlei; M. phlei ATCC11758, Muller Hinton broth, 37° C., 24 hours. As to the method: as §5, §6, §7, §8
For series [4], the system named is Mycobacterium smegmatis ATCC607. Kind of series: Antimicrobial activity, MIC. The note with it: Mycolicibacterium smegmatis; Mycobacterium smegmatis ATCC607, Muller Hinton broth, 37° C., 24 hours. Format: cell-based. As to the method: as §5, §6, §7, §8
In series [5] the test system is N. pseudobrasiliensis IFM0624. In words: Antimicrobial activity, MIC. The note with it: N. pseudobrasiliensis IFM0624, Muller Hinton broth, 37° C., 24 hours. The format is cell-based. As to the method:
as §5, §6, §7, §8

Another series has as its system N. nova IFM0290. In words: Antimicrobial activity, MIC. The note with it: N. nova IFM0290, Muller Hinton broth, 37° C., 24 hours. The format is cell-based. As to the method: as §5, §6, §7, §8
Series [6] relates to Micrococcus luteus IFM2066. In words: Antimicrobial activity, MIC. Format: cell-based. The following applies: Micrococcus luteus IFM2066, Muller Hinton broth, 37° C., 24 hours. As for the experimental part:
as §5, §6, §7, §8

The test system of the next series is M. flavescens ATCC14474. Kind of series: Antimicrobial activity, MIC. The format is cell-based. The note with it: Mycolicibacterium flavescens; M. flavescens ATCC14474, Muller Hinton broth, 37° C., 24 hours. As for the experimental part:
as §5, §6, §7, §8

For the next series, the system named is Bacillus subtilis PCI189. In words: Antimicrobial activity, MIC. Format: cell-based. The following applies: Bacillus subtilis PCI189, Muller Hinton broth, 37° C., 24 hours. As for the experimental part:
as §5, §6, §7, §8

The subject of series [7] is Nocardia transvalensis IFM0333. In words: Antimicrobial activity, MIC. Format: cell-based. The following applies: Nocardia transvalensis IFM0333, Muller Hinton broth, 37° C., 24 hours. As to the method: as §5, §6, §7, §8
For the next series, the system named is KB cells. In words: Cytotoxicity on cultured tumor cell line KB (MTT). The format is cell-based. The note with it: Homo sapiens, 72 hours, read-out: IC50 (growth of tumor cells). As for the experimental part:
as §1, §2, §3, §4

The subject of a further series is P388 cells. Kind of series: Cytotoxicity on cultured tumor cell line P388 (MTT). The format is cell-based. The following applies: Mus musculus, P388, 72 hours, read-out: IC50 (growth of tumor cells). As to the method:
as §1, §2, §3, §4

The test system of another series is L1210 cells. In words: Cytotoxicity on cultured tumor cell line L1210 (MTT). The format is cell-based. The note with it: Mus musculus, L1210, 72 hours, read-out: IC50 (growth of tumor cells). As to the method:
as §1, §2, §3, §4

Series [8] concerns adriamycin-resistant P388 (P388/ADR) cells. Kind of series: Cytotoxicity on adriamycin resistant P388 (P388/ADR) (MTT). Format: cell-based. The following applies: 72 hours, read-out: IC50 (growth of tumor cells). As for the experimental part: as §1, §2, §3, §4
In series [9] the test system is Aspergillus niger ATCC40606. Kind of series: Antimicrobial activity, MIC (fungi). The format is cell-based. The note with it: Aspergillus niger ATCC40606, Sabouraud's Dextrose liquid medium, 37° C., 24 hours. As to the method: as §5, §6
(§9) To determine MIC for fungi, Sabouraud's Dextrose liquid medium was used and the density of the test fungi was 1×10^4 cfu/ml.
as §8

Series [10] relates to Candida albicans ATCC90028. Kind of series: Antimicrobial activity, MIC (fungi). The format is cell-based. The following applies: Candida albicans ATCC90028, Sabouraud's Dextrose liquid medium, 37° C., 24 hours. As for the experimental part: as §5, §6, §9, §8
The test system of the next series is various microorganisms. In words: Antimicrobial activity on various microorganisms, overall. The format is cell-based. The following applies: in words. As for the experimental part: as §5, §6, §7, §9, §8

Converted amounts (≈) assume the structure as drawn.

In the case of `NC[C@H]1O[C@H](O[C@H]2[C@H](O)[C@@H](O[C@H]3O[C@H](CO)[C@@H](O)[C@H](N)[C@H]3O)[C@H](N)C[C@@H]2N)[C@H](O)[C@@H](O)[C@@H]1O` [kanamycin], in [1], the Susceptibility to antibiotics entry is “negative”.

Regarding `C[C@@H](O)[C@H]1C(=O)N2C(C(=O)O)=C(SCCN=CN)C[C@H]12` [imipenem], the Susceptibility to antibiotics result in series [1] is “negative”.

One may read the MIC as the lowest concentration found to suppress growth. A higher MIC goes with a less susceptible organism. A word on the IC50: it is the midpoint of a concentration-inhibition curve. Consider `[C-]#[N+]C(=C\c1cn(C)c2ccccc12)/C=C/C(=C)C` [Compound 0089-D], for which the “inhibition zone of growth” value with Micrococcus luteus is reported as “inhibition zone of growth of M. luteus”. Further, the Solubility entry is on record as “Soluble” in “Solubility” (ether); “Soluble” in “Solubility” (ethyl acetate); “Slightly soluble” in the series “Solubility” (hexane); “Soluble” in the series “Solubility” (methanol); “Insoluble” in the series “Solubility” (water). In addition, in [2], the “cytotoxicity on the cultured tumor cells” value is listed as “strong cytotoxicity”. Besides, the MIC came out at 6.25 µg/mL (≈ 25.2 µM) in series [3]; 25 µg/mL (≈ 101 µM) against N. brasiliensis IFM0236; 12.5 µg/mL (≈ 50.3 µM) against N. asteroides IFM0319; 12.5 µg/mL (≈ 50.3 µM) in the series on N. farcinica IFM0284; 1.56 µg/mL (≈ 6.28 µM) in the series on M. phlei ATCC11758; 0.78 µg/mL (≈ 3.14 µM) in [4]. Besides, the minimal inhibitory concentration (MIC) in [5] amounted to 3.13 µg/mL (≈ 12.6 µM); in the series on N. nova IFM0290 it was 1.56 µg/mL (≈ 6.28 µM); in series [6], 3.13 µg/mL (≈ 12.6 µM); against M. flavescens ATCC14474, 3.13 µg/mL (≈ 12.6 µM); against Bacillus subtilis PCI189 it was 3.13 µg/mL (≈ 12.6 µM); in series [7], 3.13 µg/mL (≈ 12.6 µM). The minimum inhibitory concentration (MIC) in [9] came out at 0.39 µg/mL (≈ 1.57 µM); in series [10], 25 µg/mL (≈ 101 µM). The half-inhibitory concentration (IC50) came out at 0.75 µg/mL (≈ 3.02 µM) in the series with KB cells, 0.44 µg/mL (≈ 1.77 µM) in the series with P388 cells, 0.25 µg/mL (≈ 1.01 µM) with L1210 cells and 0.56 µg/mL (≈ 2.26 µM) in [8]. Moreover, the antimicrobial spectrum result in the series with various microorganisms was “wide antimicrobial spectrum”.

Consider `NC[C@H]1O[C@H](O[C@H]2[C@H](O)[C@@H](O[C@H]3O[C@H](CO)[C@@H](O)[C@H](N)[C@H]3O)[C@H](N)C[C@@H]2N)[C@H](N)C[C@@H]1O` [tobramycin], for which, in [1], the Susceptibility to antibiotics result is reported as “positive”.

Consider `O=c1[nH]cc(F)c(=O)[nH]1` [Compound 5-FU, 5-FU], for which the Susceptibility to antibiotics result in [1] is listed as “negative”.
